The source of these data is patent US4950647A, “T cell immunopotentiator” (Nucleic Acid Research Institute, priority 1988, dated 1990).

SMILES strings stand for the structures.

Assay [1] in a line: Immune system enhancement / suppression. The settings on record: β analog: at the same concentrations at which the compound is immunostimulatory.
For a further assay, the system named is B cells. The settings on record: predominantly a subset of mature B lymphocytes; cited from earlier work.
A further assay relates to macrophages and NK cells. The settings on record: cited from earlier work.
The subject of assay [2] is human lymphocytes (peripheral blood mononuclear cells). The settings on record: known; cited from earlier work.

`Nc1cc2c(ncn2[C@H]2C[C@H](O)[C@@H](CO)O2)c(=O)[nH]1` [2'-deoxy-3-deazaguanosine]: in assay [1], the “immunosuppressive / immune enhancing effect” value was “immunosuppressive”. As to `Nc1nc2c(ncn2[C@H]2C[C@H](O)[C@@H](CO)O2)c(=O)[nH]1` [2'-deoxyguanosine], the “immunosuppressive / immune enhancing effect” value in assay [1] is listed as “not immune system enhancers”. On to `Nc1cc2c(ncn2[C@@H]2O[C@H](CO)[C@@H](O)[C@H]2O)c(=O)[nH]1` [3-deazaguanosine], for which the “immunosuppressive / immune enhancing effect” value in assay [1] is on record as “not immune system enhancers”. As for `Nc1nc2c(nc(Br)n2[C@@H]2O[C@H](CO)[C@@H](O)[C@H]2O)c(=O)[nH]1` [8-bromoguanosine], the “stimulation of B cell proliferation” value with B cells is “stimulate proliferation of B cells”. The “activation of macrophages and NK cells” value in the assay with macrophages and NK cells was “activate macrophages and NK cells”. In assay [2], the “activation of lymphocytes to proliferate” value was “activate lymphocytes to proliferate”. `Nc1nc2c(nc(S)n2[C@@H]2O[C@H](CO)[C@@H](O)[C@H]2O)c(=O)[nH]1` [8-mercaptoguanosine]: the “stimulation of B cell proliferation” value with B cells is listed as “stimulate proliferation of B cells”. In addition, the “activation of lymphocytes to proliferate” value in assay [2] is listed as “activate lymphocytes to proliferate”.
